What was measured:
[1] = cited from earlier work
[2] = at the end of 80 days; cited from earlier work
[3H]-5-HT uptake = isolated rat brain cortical slices; cited from earlier work
[3] = mice on a 10% sucrose diet; cited from earlier work
[4] = Multi-week pilot open clinical weight loss trial with extremely obese patients; format: in vivo, human
Description: In the present studies, data on human usage emerged from a multi-week pilot open clinical weight loss trial with extremely obese patients which was undertaken to gauge the effects of a pouch delivery form of a potassium salt of HCA under the normal circumstances faced in clinical practice with this patient population. Sixteen patients were enrolled, three of whom were diabetics on medications and several others who were suspected of suffering from insulin resistance. The patients ingested 3-4 grams of HCA (in the form of the potassium salt) per day in two divided doses. Aside from being informed that they must eat a carbohydrate-containing meal within one hour of taking the HCA and that they should avoid eating late in the day, they were not instructed to follow any special diet or exercise plan outside their normal habits and no caloric restriction was imposed. This particular form of potassium HCA delivery typically was mixed into water or juice and consumed at mid-morning and mid-afternoon. The delivery was a water-soluble immediate release form. It was a pre-commercial preparation and nearly all of the patients complained regarding the inconvenience and poor taste of the product, albeit there were no other issues of tolerability.
A number of patients continued on the program for 6 weeks. However, most patient data was good for only 3 weeks because two of the diagnosed diabetics experienced severe hypoglycemic reactions. […] Two patients subsequently were placed on phentermine. […] The average weight loss over the 3 week period for these 14 patients was approximately 3.1 pounds per person per week. […] At therapeutically effective dosages, HCA probably should be used with diabetic populations only under a physician's care.

[5] = Blood glucose after HCA meal replacement releasing only in the small intestine; format: in vivo, human
Description: In Example 1, the HCA was delivered in an immediate-release preparation. Our unexpected findings with regard to blood sugar led to the hypothesis that a relatively large dose of HCA might affect blood sugar levels in an individual whose blood sugar is in the low normal range. A dose of 1.5 grams HCA derived from potassium HCA and delivered in a special coated form designed to bypass interaction with stomach acids and to release only in the higher pH of the small intestine was used. A potassium HCA salt granulate was prepared according to Example 1 found in U.S. Pat. No. 6,447,807 and delivered via a dry powdered meal replacement designed to be mixed with liquid to provide 1.5 grams of HCA per 350 calories plain (mixed with water) or approximately 500 calories with milk. […] The subject ate a 500 calorie breakfast consisting the experimental HCA meal replacement. Two hours after this meal, subject's blood glucose level had dropped to 77 mg/dL. […] This finding seemed paradoxical in that the outstanding metabolic effect, which might be thought to indicate blood levels of the drug, was not matched by even a normal level of feelings of fullness. This implied that at least part of the satiation induced by HCA comes about prior to entry of the compound into the blood. […]

[6] = Capsaicin-HCA interaction satiety test; format: in vivo, human; details: 5 individuals, approximately 2 grams in water about an hour before a meal; before red pepper sauce
Description: The meal itself began with a soup course. […] At this point, bottles of red pepper sauce were supplied and the sauce was applied liberally. […] As is true of Example 3, this provides indirect evidence that HCA acts upon a CCK-related mechanism in inducing satiety.

[7] = Immediacy of HCA-induced satiety, lemonade-like drinks prior to a meal; format: in vivo, human; details: 5 individuals, approximately 2 grams in sweetened lemonade-like drinks, 16-24 ounces, about 200 calories
Experimental: To test this theory, and the palatability of an HCA salt when mixed with various flavors, a study was conducted in which 5 individuals consumed approximately 2 grams potassium HCA mixed in sweetened lemonade-like drinks prior to a meal. Consumption of the drinks took place over the course of approximately one half hour and involved 16-24 ounces of fluid, but only about 200 calories.

SMILES	Reduction in food consumption ([1]; experimental animals fed a high-sugar diet, single large oral dose or two divided oral doses)	Minimum effective dose, once per day ([1]; oral, once per day)	Minimum effective dose, twice per day ([1]; oral, twice per day)	Net reduction in food intake compared with controls [2]	Reduction in weight gain [2]	[3H]-5-HT uptake ([3H]-5-HT uptake)	Leptin/white adipose tissue ratio compared with control [3]	Serum insulin compared with control [3]	Serum leptin compared with control [3]	Average weight loss ([4]; 3 week period, 14 patients, 3-4 grams HCA per day in two divided doses, immediate release pouch form)	Blood pressure ([4]; eight patients with hypertension)	Effect on blood sugar in diabetics ([4]; immediate release format, two diagnosed diabetics had severe hypoglycemic reactions)	Weight loss of one patient ([4]; over 10 weeks)	Appetite suppression ([4]; several patients)	Anorectic action / feelings of fullness ([5]; delivery to the small intestine, by-passing the stomach)	Blood glucose level ([5]; two hours after 500 calorie meal with 1.5 grams HCA, coated form released in small intestine, fasting level before 85 mg/dL, one subject)	Feeling of fullness [6]	Satiety [7]
O=C(O)CC(O)(C(=O)O)C(O)C(=O)O (single isomer, unassigned; (-)) [HCA, (−)-hydroxycitric acid]	≥ 10%	2.63 mmol/kg	0.33 mmol/kg	4%	78%	inhibit	lower	lower	lower	–	–	–	–	–	–	–	–	–
O=C([O-])CC(O)(C(=O)[O-])C(O)C(=O)[O-].[K+].[K+].[K+] (stereo not drawn) [potassium HCA]	–	–	–	–	–	–	–	–	–	approximately 3.1 pounds per person per week	normalize blood pressure	strong hypoglycemic effect	32 pounds	good appetite suppression	blunt the anorectic actions	77 mg/dL	felt full very soon	satiated soon after the meal began

Reference: patent US20060228412A1, “(-)-Hydroxycitric acid for delaying gastric emptying” (priority 2003, published 2006)
